Results from patent US20090156638A1, “Uses of nordihydroguaiaretic acid (NDGA) and derivatives thereof in preventing transmission of sexually transmitted diseases” (priority 2007, published 2009).
pIC50: −log10 of the molar value.

Key:
[1] = tested on: acyclovir-resistant strains of HSV-1 (HSV-1^R); conditions: Chen et al., FIG. 3; cited from earlier work
[2] = Stability of M4N ointment formulation; type: physicochemical; conditions: 2% wt/wt ointment in white petrolatum, 5 mL containers
Source text: Two dosing schemes were used.

HSV-2 = test: Mouse vaginal model of HSV-2 infection; type: in vivo, CF-1 mice; conditions: 20 mg/ml in Vaseline
Protocol: The efficacies of […] (FIG. 8A) and […] (FIG. 8A) against HSV-2 in a mouse vaginal model system have also been examined. […] At the end of three days, the vaginal lavages were collected from the washings of the vagina regions. The status of the vaginal HSV-2 infection and replication were examined by their cytopathic effects on cultured human foreskin fibroblast cells. Monitoring and scoring were carried out by three persons independently.

[3] = 14-day toxicity study in rats, toxicokinetics; type: in vivo; conditions: for Tmax / Cmax: rat, plasma; for Tmax: 500 mg/kg; for Cmax: Group 10 (500 mg/kg), Day 14
Protocol: The toxicokinetics study consisted of four dose-groups (0, 50, 100, 500 mg/kg) with 6 animals/sex/group. Approximately 0.7 mL of blood was collected from the jugular vein from 3 rats/sex/group rotated in ascending order for each dose group at 0.5, 1, 4, 8, and 12 hours post-dose on Days 1, 7, and 14. Plasma was isolated and analyzed for M4N by HPLC assay.

[4] = mouse, in vivo
[5] = in vivo, 45 mg/kg; cited from earlier work
HPV 16 = test: HPV inhibition in C33A cells; type: cell-based; conditions: C-33-A, read-out: Inhibitory Concentration (IC50 or EC50)
[6] = Fourteen day rabbit intravaginal irritation study
[7] = Single dose s.c. rabbit irritation study
Protocol: 4 male and 2 female New Zealand White rabbits received single s.c. injections of saline (1 mL), DMSO (1 mL), 20 mg (0.1 mL) M4N, and 200 mg (1 mL) M4N at each of four sites. Mortality, clinical observations, body weights, dermal irritation, gross necropsy findings, and microscopic pathology were evaluated. […] All injection sites were preserved in 10% neutral-buffered formalin (NBF).

HIV-1 = test: microbe, parasite or virus in culture; conditions: Human immunodeficiency virus 1, IIIB, COS, read-out: Inhibitory Concentration (IC50 or EC50)
HSV-1 [8] = test: Mutation-insensitivity: IC50 against HSV-1 over ten virus passages; type: cell-based
Source text: In contrast, host factors, unlike viral factors, are under no selective pressure to mutate and are in general structurally invariable. […] Table 1 compares the IC50 of M4N and acyclovir for ten passages.

[9] = tested on: Sp1 regulated transcription of HPV E6/E7; test: Sp1 regulated HPV E6/E7 transcription, luciferase assays and C3 tumor lines; type: cell-based; conditions: luciferase assays and HPV induced mouse cervical C3 tumor lines
Source text: (§1) The […] (IE) ICP4 gene of HSV is essential for HSV replication.

[10] = 14-day toxicity study in dogs, toxicokinetics; type: in vivo, beagle dogs; conditions: for highest mean plasma concentration: Day 14; for Tmax: read-out: median Tmax
Protocol: Three beagle dogs/sex/group received doses of 0 (0.50 mL/kg DMSO), 10, 50, and 100 mg/kg (0.05, 0.25, 0.5 mL/kg) M4N. Approximately 4 mL of blood was collected from the jugular vein at each sampling time point of 0.5, 1, 4, 8, and 12 hours after dosing on Days 1, 7, and 14. Three dogs/sex/group were rotated in ascending order for each dose group. Plasma was isolated and analyzed for M4N by HPLC assay.

HSV-1 [11] = tested on: HSV-1
Protocol: The dorsal cutaneous guinea pig model system is a well-established model for HSV-1 infection.
In FIGS. 6A-6D, for topical treatment with M4N sections of shaved and depilated dorsal guinea pig skin were infected equally were infected with HSV-1.
McKrae strain). […] Treatments were administered twice daily and photogragphs were taken at day 6 post-infection. […] Regions 1 and 4 were infected with high levels of HSV-1 (1×10^8 pfu/mL), regions 2 and 5 were infected with moderate levels of HSV-1 (1×10^6 pfu/mL) and regions 3 and 6 were infected with low levels of HSV-1 (1×10^4 pfu/mL).

[12] = Human safety, tolerability and pharmacokinetic study of M4N vaginal ointment
ICP4 gene of HSV = test: Inhibition of HSV ICP4 gene transcription; type: cell-based, HSV-1; conditions: previously determined
Source text: as §1

[13] = all samples, Days 1 and 7, LOQ 0.4000
[14] = rabbit vaginal irritation study
[15] = fourteen women, M4N ointment/placebo crossover

In the case of COc1ccc(C[C@@H](C)[C@@H](C)Cc2ccc(OC)c(OC)c2)cc1OC [M4N, tetra-O-methyl-nordihydroguaiaretic acid], the “efficacy against acyclovir-resistant strains of HSV-1” value [1] is listed as “retains complete efficacy”, the “time remained stable at room temperature” value [2] is listed as 6 months and the “infection in the other 4 mice” value (HSV-2) is listed as “very little infection”. The “mice fully infected, out of 8 mice” value (HSV-2) was 4, the “score of the fully infected mice” value (HSV-2) was 34 and the “AUClast, females relative to males” value ([3]; Group 10, Day 14) was about 4 times. It also gave a plasma concentrations ([3]; Groups 8 and 9, Day 14, LOQ 0.4000) of under 400 ng/mL, a plasma concentrations [3, 13] of under 400 ng/mL and a Tmax ([3]; female, females, Group 10, Day 14) of 4 h. It also gave a Cmax ([3]; female, females) of 537 ng/mL, a Tlast ([3]; females) of 12 h and a Tmax ([3]; male, males, Group 10, Day 14) of 0.5 h. For the same molecule, the Cmax ([3]; male, males) was 333 ng/mL, the Tlast ([3]; males) was 8 h and the toxicity [4] was “no toxicity”. For the same molecule, the “tolerability on intravenous administration” value [5] was “generally good tolerability”, the pIC50 (HPV 16) was 4.52 and the early deaths ([6]; 2% w/w intravaginal, 1 mL once daily for 14 days) was “no early deaths”. For the same molecule, the “gross pathology (enlarged liver, irregularly shaped femur, rabbit 32092)” value ([6]; Group 2) was “incidental findings and not test article related”, the hematology vs controls ([6]; Study Day 15, Group 2 (2% w/w), attributed to individual animal variation) was “statistically significant lower absolute basophil count” and the “clinical chemistry vs controls” value ([6]; Study Day 15, Group 2, attributed to individual animal variation) was “statistically significant lower ALT”. The “cumulation after day 14 dosing” value ([6]; female rabbits, topical per vaginam) was “no resultant evidence of cumulation”, the blood concentrations seen ([6]; female rabbits, topical per vaginam, 4 hours post first dose and day 14) was at most 10 ng/mL and the “start of absorption into the blood” value [6, 14] was 30 min. For the same molecule, the “time of peak absorption into the blood” value [6, 14] was 4 h, the “effect on measured clinical pathology parameters” value ([6]; repeated intravaginal administration for 14 days) was “no apparent test article-related effect” and the “histopathology of injection sites compared to DMSO vehicle sites” value ([7]; rabbit, in vivo, sc) was “slight increase in the intensity of reactions”. For the same molecule, the “effect on body weight or mortality” value ([7]; single s.c. injection, any dose group) was “No treatment-related effect”, the pIC50 (HIV-1) was 4.96 and the pIC50 (HSV-1 [8]; Human alphaherpesvirus 1, HSV-1 passage 1) was 4.93. The pIC50 (HSV-1 [8]; Human alphaherpesvirus 1, HSV-1 passage 2) was 5.36, the pIC50 (HSV-1 [8]; Human alphaherpesvirus 1, HSV-1 passage 3) was 5.08 and the pIC50 (HSV-1 [8]; Human alphaherpesvirus 1, HSV-1 passage 4) was 5.22. For the same molecule, the pIC50 (HSV-1 [8]; Human alphaherpesvirus 1, HSV-1 passage 5) was 5.19, the pIC50 (HSV-1 [8]; Human alphaherpesvirus 1, HSV-1 passage 6) was 5.16 and the pIC50 (HSV-1 [8]; Human alphaherpesvirus 1, HSV-1 passage 7) was 5.16. The pIC50 (HSV-1 [8]; Human alphaherpesvirus 1, HSV-1 passage 8) was 5.00, the pIC50 (HSV-1 [8]; Human alphaherpesvirus 1, HSV-1 passage 9) was 5.05 and the pIC50 (HSV-1 [8]; Human alphaherpesvirus 1, HSV-1 passage 10) was 5.32. The “change in IC50 against HSV-1” value (HSV-1 [8]; following ten passages of virus) was “no increase in the IC50”, the “reduction of Sp1 regulated transcription of HPV E6/E7” value [9] was “dramatically reduces Sp1 regulated transcription of HPV E6/E7” and the “highest mean plasma concentration” value ([10]; Group 3 (50 mg/kg)) was 1.004 µg/mL. The “AUClast, males relative to females” value ([10]; Group 3, Day 14) was “approximately 3 times”, the Tlast ([10]; Group 3 females) was 4 h and the “highest mean plasma concentration” value ([10]; Group 4 (100 mg/kg)) was 1.096 µg/mL. The “AUClast, males relative to females” value ([10]; Group 4, Day 14) was about 2 times, the plasma concentrations [10, 13] was under 400 ng/mL and the concentration at 14 day ([10]; both sexes, beagle, dog, plasma, Group 2 (10 mg/kg), Day 14, read-out: plasma concentration, only sample greater than LOQ) was 471 ng/mL. The Tmax ([10]; both sexes, beagle, dog, plasma, Groups 3 and 4 except Group 3 males) was 4 h, the Cmax ([10]; both sexes, beagle, dog, plasma, all groups) was 1000 ng/mL and the “median Tlast” value ([10]; except Group 3 females) was 12 h. The Tmax ([10]; male, beagle, dog, plasma, 50 mg/kg, Group 3 males) was 8 h, the “efficacy by time of first treatment after infection” value (HSV-1 [11]; 170 μM, first treated 10 min, 24 h, 48 h, 72 h after infection) was “better efficacy when treatment commenced shortly, within 24, after infection” and the “inhibition of HSV-1 induced cutaneous lesion formation and viral shedding” value (HSV-1 [11]; topical application, guinea pig) was “effectively inhibited HSV-1 induced cutaneous lesion formation and viral shedding”. For the same molecule, the “toxicity or dermal irritation” value (HSV-1 [11]; topical, even at the highest soluble concentrations (150 mM)) was “no evidence of toxicity or dermal irritation”, the tolerability ([12]; 90 mg (2% wt/wt) intravaginally once per day for 7 days, healthy women) was “well tolerated” and the “detection in serum pharmacokinetic samples” value ([12]; days 1 and 7, 1, 2, 4, 6 hours after dosing, lower limit of detection 1 ng/mL) was “no detection of M4N”. It also gave an abdominal pain reported [12, 15] of 1 subjects, a groin pain reported [12, 15] of 1 subjects and a headaches reported [12, 15] of 3 subjects. The tooth abscess reported [12, 15] was 1 subjects, the “upper respiratory tract infection reported” value [12, 15] was 2 subjects and the “application site irritation reported” value ([12]; might have been caused by the M4N ointment) was 1 subjects. For the same molecule, the “inhibition of ICP4 gene transcription” value (ICP4 gene of HSV) was “effectively inhibit ICP4 gene transcription”.
